This is an account of results in ChEMBL document CHEMBL6153120, “Identification of Structurally Novel KRASG12C Inhibitors through Covalent DNA-Encoded Library Screening” (J Med Chem, 2025).

Bounds are passed on as bounds.

Data set [1] is described as follows: Inhibition of ERK1/2 phosphorylation in human MIA PaCa-2 cells incubated for 2 hrs by MSD assay. The data set is classed as cell-based. The settings on record: MIA PaCa-2, 2 h.
Another data set concerns the target GTPase KRas (Homo sapiens, UniProt P01116, C118A/G12C). Description: Inhibition of recombinant His-tagged GDP-bound human KRAS G12C/C118A mutant (1 to 169 residues) (unknown origin) extracted by Escherichia coli assessed as SOS1-catalyzed GDP-GTP exchange preincubated for 2 hrs followed by SOS1 and GTP addition for 30 mins and measured after 45 mins of GST-tagged c-RAF addition by luminescence based Alphascreen assay. In general terms: In Alpha technology, singlet oxygen from a donor bead excites a nearby acceptor bead.

The next data set has as its system MIA PaCa-2. Description: Antiproliferative activity against human MIA PaCa-2 cells assessed as reduction in cell viability incubated for 72 hrs by Cell Titer-Glo reagent based luminescent cell viability assay. The format is functional. As to conditions: MIA PaCa-2, 72 h. For orientation: ATP-based viability assays read luminescence as a measure of living cells.

Data set [2] in a line: Unbound AUC in mouse at 5 mg/kg, po. The settings on record: in vivo. The data set is classed as ADME, organism-based.
Data set [3] is described as follows: Oral bioavailability in mouse. The data set is classed as ADME, organism-based. The settings on record: in vivo.
Data set [4] in a line: Clearance in mouse. The format is ADME, organism-based. The settings on record: in vivo.
Data set [5] can be described thus: Unbound AUC in mouse at 100 mg/kg, po. The data set is classed as ADME, organism-based. As to conditions: in vivo.
The nature of another data set: animal or person. The settings on record: Mus musculus, MIA PaCa-2, po, 2 h, read-out: INH.

A word on the IC50: it is the concentration that inhibits the measured activity by half. With `C=CC(=O)N1CC2(CCN(c3nc4c(c(-c5c(C)ccc6[nH]ncc56)n3)CCCC4)C2)C1`, the IC50 in data set [1] is 8240 nM; at GTPase KRas, 3830 nM; with MIA PaCa-2, > 5000 nM.

As usually defined, the bioavailability is dose-corrected exposure relative to a reference, in per cent. Read a low bioavailability as poor availability. In general, clearance refers to the volume of plasma or blood freed of the substance per unit of time. A lower clearance goes with a low capacity for elimination. For the molecule `C=CC(=O)N1CC2(CCN(c3nc4c(c(-c5c(C)ccc6[nH]ncc56)c3C#N)COC(C)(C)C4)C2)C1`, the IC50 in data set [1] was 158 nM; at GTPase KRas, 64 nM; in the data set with MIA PaCa-2, 96 nM. In data set [2], the fAUC was 0.003 µM·h. Besides, in data set [3], the bioavailability worked out at 3%. In data set [4], this molecule showed a clearance of 90 mL/min/kg.

Take `C=CC(=O)N1CC2(CCN(c3nc4c(c(-c5cc(O)cc6ccccc56)c3F)COC(C)(C)C4)C2)C1`: the figures for the IC50 (in data set [1]; at GTPase KRas; in the data set on MIA PaCa-2) were 217 nM, 62 nM and 119 nM, respectively. Besides, the fAUC in data set [2] is 0.027 µM·h; in data set [5], 0.36 µM·h. This molecule yielded a bioavailability in data set [3] of 27%.

On to `C=CC(=O)N1CC2(CCN(c3nc4c(c(-c5cc(O)cc6ccccc56)c3C)COC(C)(C)C4)C2)C1`, for which the IC50 in data set [1] came to 100 nM; in the data set on MIA PaCa-2, 32 nM. Moreover, the fAUC in data set [2] amounted to 0.018 µM·h; in data set [5], 0.137 µM·h. In addition, the bioavailability in data set [3] is 44%.

As for `C=CC(=O)N1CC2(CCN(c3nc4c(c(-c5cc(O)cc6ccccc56)c3C#N)C[C@H]3C[C@@H]4C3(C)C)C2)C1`, the IC50 in data set [1] was 40 nM; at GTPase KRas, 19 nM; in the data set on MIA PaCa-2, 21 nM. The fAUC in data set [2] was determined as 0.001 µM·h. This molecule also registered a bioavailability in data set [3] of 4%.

With `C=CC(=O)N1CC2(CCN(c3nc4c(c(-c5cc(O)cc6ccccc56)n3)CCCC4)C2)C1`, the IC50 in data set [1] is 8480 nM; at GTPase KRas, 690 nM; in the data set on MIA PaCa-2 it was > 5000 nM.

As for `C=CC(=O)N1CC2(CCN(c3nc4c(c(N[C@H](CC(=O)NC)CC(C)C)n3)CCCC4)C2)C1`, the results for the IC50 (in data set [1]; in the data set with MIA PaCa-2) were 1590 nM and 890 nM, respectively.

Turning to `C=CC(=O)N1CC2(CCN(c3nc4c(c(-c5cc(O)cc6ccccc56)c3F)C[C@H]3C[C@@H]4C3(C)C)C2)C1`, in the data set “animal or person”, the inhibition in vivo at 100 mg/kg was found to be 55%. Further, the fAUC in data set [2] was 0.021 µM·h; in data set [5], 1.01 µM·h. Further, the bioavailability in data set [3] is 14%.

Turning to `C=CC(=O)N1CC2(CCN(c3nc4c(c(-c5c(C)ccc6[nH]ncc56)n3)CCC(C)(C)C4)C2)C1`, the IC50 in data set [1] was determined as 6390 nM; on GTPase KRas, 840 nM; in the data set on MIA PaCa-2, 3350 nM.

With `C=CC(=O)N1CC2(CCN(c3nc(N[C@H](CC(=O)NC)CC(C)C)nc(-c4cccc(OC)c4F)n3)C2)C1`, the IC50 in data set [1] is 1230 nM; on GTPase KRas it was 610 nM; in the data set on MIA PaCa-2 it was 720 nM.

Turning to `C=CC(=O)N1CC2(CCN(c3nc(N[C@H](CC(=O)NC)CC(C)C)nc(-c4cccc(OC)c4OC)n3)C(C)C2)C1` (stereo not given in full), the IC50 was 6010 nM in data set [1] and 3200 nM on GTPase KRas.

In the case of `C=CC(=O)N1CC2(CCN(c3nc(N[C@H](CC(=O)NC)CC(C)C)nc(-c4cc(F)ccc4OC)n3)CC2(F)F)C1`, the IC50 in data set [1] amounted to 950 nM; on GTPase KRas it was 300 nM; in the data set on MIA PaCa-2, 720 nM.

As to `C=CC(=O)N1CC2(CCN(c3nc4c(c(-c5c(C)ccc6[nH]ncc56)c3C#N)C[C@H]3C[C@@H]4C3(C)C)C2)C1`, the IC50 in data set [1] worked out at 10 nM; on GTPase KRas it was 19 nM; with MIA PaCa-2, 11 nM.

Regarding `C=CC(=O)N1CC2(CCN(c3nc4c(c(-c5cc(O)cc6ccccc56)c3C#N)COC(C)(C)C4)C2)C1`, the values for the IC50 (in data set [1]; on GTPase KRas; in the data set with MIA PaCa-2) were 101 nM, 22 nM and 143 nM, respectively. Besides, in data set [2], the fAUC amounted to 0.013 µM·h. In data set [3], the bioavailability turned out to be 34%.

Regarding `C=CC(=O)N1CC2(CCN(c3nc4c(c(-c5cc(O)cc6ccccc56)c3Cl)COC(C)(C)C4)C2)C1`, the fAUC in data set [2] is 0.042 µM·h; in data set [5], 0.15 µM·h. In addition, the bioavailability in data set [3] is 50%.

On to `C=CC(=O)N1CC2(CCN(c3nc(N[C@H](CC(=O)NC)CC(C)C)nc(-c4cccc(OC)c4Cl)n3)CC2)C1`, for which the concentration for half-maximal inhibition (IC50) in data set [1] turned out to be 8840 nM; at GTPase KRas it was 1750 nM.

On to `C=CC(=O)N1CC2(CCN(c3nc(N[C@H](CC(=O)NC)CC(C)C)c4ccccc4n3)C2)C1`, for which the figures for the IC50 (in data set [1]; with MIA PaCa-2) were 6170 nM and 1290 nM, respectively.

Take `C=CC(=O)N1CC2(CCN(c3nc4c(c(-c5c(C)ccc6[nH]ncc56)c3C#N)CCC(C)(C)C4)C2)C1` (atropisomer P): the IC50 in data set [1] came to 67 nM; in the data set with MIA PaCa-2, 42 nM.

Regarding `C=CC(=O)N1CC2(CCN(c3nc4c(c(-c5cccc6sc(N)nc56)n3)CCCC4)C2)C1`, the IC50 in data set [1] was 8130 nM; on GTPase KRas, 890 nM; with MIA PaCa-2 it was > 5000 nM.
